Results taken from patent US11541051B2, “Compositions and methods for treating CDK4/6-mediated cancer” (Icahn School of Medicine at Mount Sinai, priority 2016, dated 2023).

Legend:
Type in all cases: cell-based
CDK4/6 [1] = assay: Characterization of CDK4/6 degraders/disruptors in various breast cancer and melanoma cells (summary, Examples 12 and 13)
Description: Specific exemplary abemaciclib-, ribociclib-, and palbociclib-based CDK4/6 degraders/disruptors were characterized in various different breast cancer and melanoma cells (Examples 12 and 13, FIGS. 10-23). […] This efficacy in suppressing CDK4/6 expression and CDK4/6 activity correlated with efficacy in inhibiting cancer cell proliferation.
(§1) Protein concentrations were determined by BCA from cell lysates and equal amounts of protein are loaded to a Bis-Tris 4-12% gel. Gels were run at 80 V for 4 h using 1× running buffer (25 mM Tris, pH 8.3, […] glycine, 0.1% SDS). Proteins were transferred to a nitrocellulose membrane for 2 h at 100 V using transfer buffer (25 mM Tris, pH 8.3, […] glycine, 20% methanol). Ponceau S staining (0.1% Ponceau S, 1% acetic acid) was used to confirm transfer of proteins to the membrane followed by blocking of the membrane for 30 min at room temperature using blocking buffer (5% dry nonfat milk, 0.1% Tween, 0.02% sodium azide in TBS). The blocked membrane is incubated with primary antibodies (1:1000 dilution) in blocking buffer at 4° C. overnight. When primary phosphor-antibodies were used, then the membrane is incubated with 5% BSA instead of milk. The membrane was washed three times, 10 min each, with wash buffer (0.1% Tween in TBS) followed by incubation with secondary HRP conjugated antibody (1:5000 dilution) in 2.5% dry nonfat milk, 0.1% Tween in TBS for 1 h at room temperature. The membrane was washed three times, 10 min each, with wash buffer (0.1% Tween in TBS). Membranes are incubated with ECL for 1 min and proteins are detected after exposure to a blue autoradiographic film.

T47D breast cancer cells = assay: Crystal violet staining (clonogenic assay) of T47D breast cancer cells (Example 13, FIGS. 22, 23); conditions: 11 days
Description: Cells were cultured for 7-11 days in the presence of different compounds. Media with compound was replenished every two days. At the end of the experiment, media was aspirated and viable cells were stained with 0.5% crystal violet dye.

CDK4/6 [2] = assay: Western blot of CDK4, CDK6 and phospho-Rb in A375 melanoma cells treated with degraders (Example 12, FIGS. 12, 13, 16, 18); conditions: 1 or 3 μM, 24 h
Description: Breast cancer cell lines (MCF7, T47D, and ZR-75-1) and melanoma cell lines (A375, SK-MEL-2, SK-MEL-30, and WM1382) were cultured in the presence of DMEM or RPMI supplemented with 10% FBS in the presence of penicillin and streptomycin.
as §1
A375 melanoma cells (FIG. 13) were treated with 1 or 3 μM Ribociclib (RB), YX030-126, YX030-108, YX030-107, YX030-086, YX030-085 or XY028-133 for 24 h, then lysed and immunoblotted with antibodies to CDK4, CDK6, cyclin A, PLK1, phospho-Rb (pRb), and actin.
A375 melanoma cells (FIG. 16, panel A) were treated with 0.3 or 1 μM XY028-140, YX039-65, YX039-48, YX039-123, YX039-56, YX039-124 or YX039-147 for 24 h. A375 melanoma cells were treated with 1 or 3 μM XY028-140, YX039-56, YX039-65 or XY028-133 (FIG. 16, panel B). Cells were lysed and immunoblotted with antibodies to phospho-Rb (pRb), total Rb, PLK1, cyclin A, CDK4, CDK6, and actin.
A375 melanoma cells (FIG. 18) were treated with 1 or 3 μM XY028-133, YX044-18, YX044-22, XY028-140, YX044-19 or YX044-38 for 24 h, then lysed and immunoblotted with antibodies to phospho-Rb (pRb), total Rb, PLK1, cyclin A, CDK4, CDK6, and actin.

Row | SMILES | suppression of both CDK4/6 expression and CDK4/6 activity (summary) (CDK4/6 [1]) | inhibition of cancer cell proliferation compared with palbociclib (crystal violet staining) (T47D breast cancer cells; 0.003, 0.01 or 0.03 μM) | inhibition of cancer cell proliferation compared with palbociclib (crystal violet staining) (T47D breast cancer cells; 0.03, 0.1, 0.3, 1 or 3 μM) | efficacy in inhibiting both CDK4/6 expression and CDK4/6 activity (decreased Rb phosphorylation) (CDK4/6 [2])
1 | CC(=O)c1c(C)c2cnc(Nc3ccc(N4CCN(C(=O)CCCCC(=O)N[C@H](C(=O)N5C[C@H](O)C[C@H]5C(=O)NCc5ccc(-c6scnc6C)cc5)C(C)(C)C)CC4)cn3)nc2n(C2CCCC2)c1=O [XY028-132, (2S,4R)-1-((S)-2-(6-(4-(6-((6-acetyl-8-cyclopentyl-5-methyl-7-oxo-7,8-dihydropyrido[2,3-d]pyrimidin-2-yl)amino)pyridin-3-yl)piperazin-1-yl)-6-oxohexanamido)-3,3-dimethylbutanoyl)-4-hydroxy-N-(4-(4-methylthiazol-5-yl)benzyl)pyrrolidine-2-carboxamide] | especially effective in suppressing both CDK4/6 expression and CDK4/6 activity | – | – | –
2 | CC(=O)c1c(C)c2cnc(Nc3ccc(N4CCN(C(=O)CCCCCCNc5cccc6c5C(=O)N(C5CCC(=O)NC5=O)C6=O)CC4)cn3)nc2n(C2CCCC2)c1=O (stereo not shown) [XY028-144, 4-((7-(4-(6-((6-acetyl-8-cyclopentyl-5-methyl-7-oxo-7,8-dihydropyrido[2,3-d]pyrimidin-2-yl)amino)pyridin-3-yl)piperazin-1-yl)-7-oxoheptyl)amino)-2-(2,6-dioxopiperidin-3-yl)isoindoline-1,3-dione] | especially effective in suppressing both CDK4/6 expression and CDK4/6 activity | – | – | –
3 | Cc1nc2c(F)cc(-c3nc(Nc4ccc(CN5CCN(C(=O)CCCCCCC(=O)Nc6cccc7c6C(=O)N(C6CCC(=O)NC6=O)C7=O)CC5)cn4)ncc3F)cc2n1C(C)C (stereo not shown) [YX26-66, N-(2-(2,6-dioxopiperidin-3-yl)-1,3-dioxoisoindolin-4-yl)-8-(4-((6-((5-fluoro-4-(4-fluoro-1-isopropyl-2-methyl-1H-benzo[d]imidazol-6-yl)pyrimidin-2-yl)amino)pyridin-3-yl)methyl)piperazin-1-yl)-8-oxooctanamide] | especially effective in suppressing both CDK4/6 expression and CDK4/6 activity | – | – | –
4 | CC(=O)c1c(C)c2cnc(Nc3ccc(N4CCN(C(=O)COc5cccc6c5C(=O)N(C5CCC(=O)NC5=O)C6=O)CC4)cn3)nc2n(C2CCCC2)c1=O (stereo not shown) [YX039-48, 4-(2-(4-(6-((6-acetyl-8-cyclopentyl-5-methyl-7-oxo-7,8-dihydropyrido[2,3-d]pyrimidin-2-yl)amino)pyridin-3-yl)piperazin-1-yl)-2-oxoethoxy)-2-(2,6-dioxopiperidin-3-yl)isoindoline-1,3-dione] | especially effective in suppressing both CDK4/6 expression and CDK4/6 activity | – | – | –
5 | CC(=O)c1c(C)c2cnc(Nc3ccc(N4CCN(C(=O)CCc5cccc6c5C(=O)N(C5CCC(=O)NC5=O)C6)CC4)cn3)nc2n(C2CCCC2)c1=O (stereo not shown) [YX039-56, 3-(7-(3-(4-(6-((6-acetyl-8-cyclopentyl-5-methyl-7-oxo-7,8-dihydropyrido[2,3-d]pyrimidin-2-yl)amino)pyridin-3-yl)piperazin-1-yl)-3-oxopropyl)-1-oxoisoindolin-2-yl)piperidine-2,6-dione] | especially effective in suppressing both CDK4/6 expression and CDK4/6 activity | inhibited cancer cell proliferation more effective that palbociclib at the same concentration | inhibited cancer cell proliferation more effective that palbociclib at the same concentration | –
6 | CC(=O)c1c(C)c2cnc(Nc3ccc(N4CCN(C(=O)CNc5cccc6c5CN(C5CCC(=O)NC5=O)C6=O)CC4)cn3)nc2n(C2CCCC2)c1=O (stereo not shown) [YX039-65, 3-(4-((2-(4-(6-((6-acetyl-8-cyclopentyl-5-methyl-7-oxo-7,8-dihydropyrido[2,3-d]pyrimidin-2-yl)amino)pyridin-3-yl)piperazin-1-yl)-2-oxoethyl)amino)-1-oxoisoindolin-2-yl)piperidine-2,6-dione] | especially effective in suppressing both CDK4/6 expression and CDK4/6 activity | inhibited cancer cell proliferation more effective that palbociclib at the same concentration | inhibited cancer cell proliferation more effective that palbociclib at the same concentration | –
7 | CC(=O)c1c(C)c2cnc(Nc3ccc(N4CCN(C(=O)CCc5cccc6c5CN(C5CCC(=O)NC5=O)C6=O)CC4)cn3)nc2n(C2CCCC2)c1=O (stereo not shown) [YX039-124, 3-(4-(3-(4-(6-((6-acetyl-8-cyclopentyl-5-methyl-7-oxo-7,8-dihydropyrido[2,3-d]pyrimidin-2-yl)amino)pyridin-3-yl)piperazin-1-yl)-3-oxopropyl)-1-oxoisoindolin-2-yl)piperidine-2,6-dione] | especially effective in suppressing both CDK4/6 expression and CDK4/6 activity | – | – | –
8 | CC(=O)c1c(C)c2cnc(Nc3ccc(N4CCN(C(=O)CCc5cccc6c5C(=O)N(C5CCC(=O)NC5=O)C6=O)CC4)cn3)nc2n(C2CCCC2)c1=O (stereo not shown) [YX039-147, 4-(3-(4-(6-((6-acetyl-8-cyclopentyl-5-methyl-7-oxo-7,8-dihydropyrido[2,3-d]pyrimidin-2-yl)amino)pyridin-3-yl)piperazin-1-yl)-3-oxopropyl)-2-(2,6-dioxopiperidin-3-yl)isoindoline-1,3-dione] | especially effective in suppressing both CDK4/6 expression and CDK4/6 activity | – | – | –
9 | CC(=O)c1c(C)c2cnc(Nc3ccc(N4CCCN(C(=O)CCCCCC(=O)N[C@H](C(=O)N5C[C@H](O)C[C@H]5C(=O)NCc5ccc(-c6scnc6C)cc5)C(C)(C)C)CC4)cn3)nc2n(C2CCCC2)c1=O [YX044-18, (2S,4R)-1-((S)-2-(7-(4-(6-((6-acetyl-8-cyclopentyl-5-methyl-7-oxo-7,8-dihydropyrido[2,3-d]pyrimidin-2-yl)amino)pyridin-3-yl)-1,4-diazepan-1-yl)-7-oxoheptanamido)-3,3-dimethylbutanoyl)-4-hydroxy-N-(4-(4-methylthiazol-5-yl)benzyl)pyrrolidine-2-carboxamide] | – | – | – | efficacy of CDK4/6 degraders, particularly XY028-133 and YX044-18
